Test results taken from patent US20070254910A1, “CHEMICAL COMPOUNDS” (priority 2004, published 2007).

tested on: HIV; assay: HOS HIV anti-infectivity assay (strain not stated); format: cell-based; conditions: Human immunodeficiency virus 1, HOS HIV anti-infectivity assay; read-out: Activity Level
Protocol: Compounds were profiled against two HIV-1 viruses, the M-tropic (CCR5 utilizing) Ba-L strain and the T-tropic (CXCR4 utilizing) IIIB strain. Both viruses were propagated in human peripheral blood lymphocytes. Compounds were tested for there ability to block infection of the HOS cell line (expressing hCXCR4/hCCR5/hCD4/pHIV-LTR-luciferase) by either HIV-1 Ba-L or HIV-1 IIIB. Compound cytotoxicity was also examined in the absence of virus addition.
HOS cells (expressing hCXCR4/hCCR5/hCD4/pHIV-LTR-luciferase) were harvested and diluted in Dulbeccos modified Eagles media supplemented with 2% FCS and non-essential amino acid to a concentration of 60,000 cells/ml. The cells were plated into 96-well plates (100 ul per well) and the plates were placed in a tissue culture incubator (37° C.; 5% CO2/95% air) for a period of 24 h.
Subsequently, 50 ul of the desired drug solution (4 times the final concentration) was added to each well and the plates were returned to the tissue culture incubator (37° C.; 5% CO2/95% air) for 1 h. Following this incubation 50 ul of diluted virus was added to each well (approximately 2 million RLU per well of virus). The plates were returned to the tissue culture incubator (37° C.; 5% CO2/95% air) and were incubated for a further 96 h.
Following this incubation the endpoint for the virally infected cultures was quantified following addition of Steady-Glo Luciferase assay system reagent (Promega, Madison, Wis.). Cell viability or non-infected cultures was measured using a CellTiter-Glo luminescent cell viability assay system (Promega, Madison, Wis.). All luminescent readouts are performed on a Topcount luminescence detector (Packard, Meridien, Conn.).

IC50, < 100 nM:
CC(C)N(Cc1nc2cccc(N3CC[C@@H](N(C)C)C3)n2c1CO)[C@H]1CCCc2cccnc21 [Example 70, [5-[(3R)-3-(Dimethylamino)-1-pyrrolidinyl]-2-({(1-methylethyl)[(8S)-5,6,7,8-tetrahydro-8-quinolinyl]amino}methyl)imidazo[1,2-a]pyridin-3-yl]methanol]
CC(O)c1c(CN(C)[C@H]2CCCc3cccnc32)nc2cccc(N3CCN(C)CC3)n12 (stereo partly drawn) [Example 84, 1-[5-(4-Methyl-1-piperazinyl)-2-({methyl[(8S)-5,6,7,8-tetrahydro-8-quinolinyl]amino}methyl)imidazo[1,2-a]pyridin-3-yl]ethanol]
CN1CCCN(c2cccc3nc(CN(C)[C@H]4CCCc5cccnc54)c(CO)n23)CC1 [Example 50, [5-(4-Methylhexahydro-1H-1,4-diazepin-1-yl)-2-({methyl[(8S)-5,6,7,8-tetrahydro-8-quinolinyl]amino}methyl)imidazo[1,2-a]pyridin-3-yl]methanol]
CN1CCN(c2cccc3nc(CN(Cc4ccc(C(F)(F)F)cc4)[C@H]4CCCc5cccnc54)c(CO)n23)CC1 [Example 42, {5-(4-Methyl-1-piperazinyl)-2-[((8S)-5,6,7,8-tetrahydro-8-quinolinyl{[4-(trifluoromethyl)phenyl]methyl}amino)methyl]imidazo[1,2-a]pyridin-3-yl}methanol]
CN(Cc1nc2cccc(N3CCC(N)CC3)n2c1CO)[C@H]1CCCc2cccnc21 [Example 76, [5-(4-Amino-1-piperidinyl)-2-({methyl[(8S)-5,6,7,8-tetrahydro-8-quinolinyl]amino}methyl)imidazo[1,2-a]pyridin-3-yl]methanol]
CN1CCN(c2cccc3nc(CN(C)C4CCCc5cccnc54)c(C(O)C(F)(F)F)n23)CC1 (stereo not drawn) [Example 89A, 2,2,2-Trifluoro-1-(5-(4-methyl-1-piperazinyl)-2-{[methyl(5,6,7,8-tetrahydro-8-quinolinyl)amino]methyl}imidazo[1,2-a]pyridin-3-yl)ethanol]
CC(C)N(Cc1nc2cccc(N3CCN(C)CC3)n2c1CO)[C@H]1CCCc2cccnc21 [Example 34, [2-({(1-Methylethyl)[(8S)-5,6,7,8-tetrahydro-8-quinolinyl]amino}methyl)-5-(4-methyl-1-piperazinyl)imidazo[1,2-a]pyridin-3-yl]methanol]
CN(Cc1nc2cccc(OCCN3CCCCC3)n2c1CO)[C@H]1CCCc2cccnc21 [Example 82, (2-({Methyl[(8S)-5,6,7,8-tetrahydro-8-quinolinyl]amino}methyl)-5-{[2-(1-piperidinyl)ethyl]oxy}imidazo[1,2-a]pyridin-3-yl)methanol]
CCN(Cc1nc2cccc(N3CCN(C)CC3)n2c1CO)[C@H]1CCCc2cccnc21 [Example 32, [2-({Ethyl[(8S)-5,6,7,8-tetrahydro-8-quinolinyl]amino}methyl)-5-(4-methyl-1-piperazinyl)imidazo[1,2-a]pyridin-3-yl]methanol]
